Data from PubChem BioAssay (NCI).
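96-well plates; 48 h exposure; 5 concentrations. Endpoints by linear interpolation between flanking doses. Not reached: highest tested concentration assigned. TGI marks complete inhibition of growth.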

How the values were obtained:
Experiment in all cases: NCI anticancer screen, dose series, 48 h
HT29 colon = tested on: HT29 colon
UACC-62 melanoma = tested on: UACC-62 melanoma
NCI-H226 lung = tested on: NCI-H226 lung
NCI/ADR-RES ovarian = tested on: NCI/ADR-RES ovarian
K-562 leukemia = tested on: K-562 leukemia
UO-31 renal = tested on: UO-31 renal
OVCAR-8 ovarian = tested on: OVCAR-8 ovarian
HCT-15 colon = tested on: HCT-15 colon
786-0 renal = tested on: 786-0 renal
MOLT-4 leukemia = tested on: MOLT-4 leukemia

| Structure (SMILES) | TGI (HT29 colon) | TGI (UACC-62 melanoma) | TGI (NCI-H226 lung) | TGI (NCI/ADR-RES ovarian) | TGI (K-562 leukemia) | TGI (UO-31 renal) | TGI (OVCAR-8 ovarian) | TGI (HCT-15 colon) | TGI (786-0 renal) | TGI (MOLT-4 leukemia) |
| --- | --- | --- | --- | --- | --- | --- | --- | --- | --- | --- |
| CC(=O)Oc1c(-c2ccccc2)sc2ccccc12 | 35.3 µM | 63.2 µM | 28.8 µM | 59.1 µM | 36.2 µM | 36.6 µM | > 100 µM | 37.1 µM | 28.9 µM | 40.7 µM |
| C=C(C)COC1CCCCO1 (stereo not given) | > 100 µM | > 100 µM | > 100 µM | > 100 µM | > 100 µM | > 100 µM | > 100 µM | > 100 µM | > 100 µM | > 100 µM |
| O=C(NC(=O)c1cc(-c2ccccc2)n[nH]1)c1ccccc1 | > 100 µM | > 100 µM | > 100 µM | > 100 µM | > 100 µM | > 100 µM | > 100 µM | > 100 µM | > 100 µM | > 100 µM |
| O=C(/C=C/c1cccc(Oc2ccccc2)c1)NCc1ccc(C(=O)NCCc2ccccc2)cc1 | > 100 µM | > 100 µM | > 100 µM | > 100 µM | > 100 µM | > 100 µM | > 100 µM | > 100 µM | > 100 µM | > 100 µM |
| COC(=O)c1c(C#N)c(N)nc2c1CCC2 | > 100 µM | > 100 µM | > 100 µM | > 100 µM | > 100 µM | > 100 µM | > 100 µM | > 100 µM | > 100 µM | > 100 µM |
| CSc1ccn(C2CC(F)C(CO)O2)c(=O)n1 (stereo not given) | > 100 µM | > 100 µM | > 100 µM | > 100 µM | > 100 µM | > 100 µM | > 100 µM | > 100 µM | > 100 µM | > 100 µM |
| Cc1ccc(-c2nc(N/N=C/c3ccc(O)cc3)c3ccccc3n2)cc1 | > 100 µM | 26.4 µM | > 100 µM | > 100 µM | > 100 µM | 24.7 µM | > 100 µM | > 100 µM | 71.9 µM | > 100 µM |
